This passage reports TGI and GI50 results from PubChem BioAssay (NCI).

Common to all, as to experiment: DTP human tumour cell line panel, 48 h
Assay [1] concerns MALME-3M melanoma.
The test system of assay [2] is NCI-H522 lung.
The test system of assay [3] is CCRF-CEM leukemia.
The subject of assay [4] is NCI-H23 lung.
Assay [5] deals with CAKI-1 renal.
The test system of assay [6] is OVCAR-3 ovarian.
Assay [7] has as its system SN12C renal.
The test system of assay [8] is RXF 393 renal.
The subject of assay [9] is U251 CNS.
Assay [10] deals with SF-268 CNS.

Several values for one entry are separate records, joined by “and”; a condition that tells them apart may be missing. Identical values can stand only once.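 Growth conditions: 96-well plates. Treatment: test compound, 48 hours, 5 concentrations. Analysis: linear interpolation between bracketing concentrations; unreached endpoints set to highest concentration. GI50: concentration for 50% inhibition of growth. The concentration for full growth arrest is given as TGI.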

In general, TGI refers to the concentration giving total growth inhibition. A higher TGI goes with less potent growth arrest. As for `Nc1nc(C(=O)O)c(N=Nc2ccccc2)c(=O)[nH]1`, the TGI in assay [1], in assay [2], in [3], in [4], in [5] and in [6] was above 100 µM throughout. Besides, the TGI in assay [7], in [8], in assay [9] and in [10] was above 100 µM throughout.
The GI50 is the concentration that inhibits growth by half. As to `O=C1/C(=C/c2ccccc2[N+](=O)[O-])COc2ccc(O)cc21`, the GI50 in [1] is 1.65 µM; in assay [2] it was 0.684 µM; in assay [3], 0.326 µM; in [4], 1.59 µM; in assay [5], 1.03 µM; in assay [6] it was 0.523 µM. Besides, the GI50 in [7] was 1.6 µM; in [8], 1.23 µM; in assay [9] it was 2.41 µM; in assay [10] it was 2.4 µM. The TGI was determined as 4.62 µM in assay [1]; 3.65 µM in assay [2]; 2.52 µM in [3]; 4.41 µM in assay [4]; 2.91 µM in assay [5]; 1.76 µM in assay [6]. Besides, the TGI in assay [7] was determined as 5.55 µM; in assay [8] it was 3.02 µM; in assay [9], 8.74 µM; in assay [10] it was 7.97 µM.
On to `COc1cc2c(cc1NC(=O)C(Cl)Cl)-c1ccc(NC(=O)C(Cl)Cl)cc1C2`, for which the GI50 in assay [1] is 14 µM; in assay [2], 5.83 µM; in assay [3], 12.1 µM; in assay [4], 2.52 µM; in assay [5], 1.01 µM; in assay [6] it was 0.569 µM. In addition, the GI50 was 4.67 µM in [7], 0.429 µM in [8], 0.245 µM in [9] and 0.384 µM in assay [10]. The concentration for total growth inhibition (TGI) in assay [1] is 31.6 µM; in [2], 19.7 µM; in assay [3], 98.6 µM; in [4], 12.5 µM; in assay [5] it was 4.04 µM; in assay [6] it was 1.25 µM. The TGI worked out at 19.6 µM in [7], 1.66 µM in assay [8], 0.708 µM in [9] and 1.94 µM in [10].
`COC1=C(OC)[C@]2(OC)c3c(O)c(OC)c4c(c3O[C@@]23O[C@@H](c2ccccc2)CC=C3C1=O)[C@@H](OC)C[C@H](c1ccccc1)O4`: the concentration for 50% growth inhibition (GI50) in assay [1] was 0.377 µM; in assay [2] it was 0.247 µM; in [3], 0.0173 µM; in assay [4], 0.277 µM; in assay [5] it was 0.51 µM; in assay [6], 0.255 µM. Besides, the GI50 is 0.317 µM in [7], 1.35 µM in assay [8], 1.41 µM in [9] and 0.806 µM in assay [10]. Besides, the TGI came to 1.38 µM in assay [1]; 0.762 µM in [2]; 0.0631 µM in assay [3]; 1.01 µM in [4]; 1.88 µM in [5]; 0.72 µM in assay [6]. The TGI was determined as 1.03 µM in assay [7], 3.17 µM in assay [8], 2.74 µM in [9] and 2.84 µM in assay [10].
As to `C=CCN(CC=C)C(=O)[C@H](CC)[C@@H]1CC[C@@H](C)[C@@H]([C@H](C)[C@@H](O)[C@@H](C)C(=O)[C@H](CC)C2O[C@]3(C=C[C@@H](O)[C@]4(CC[C@@](C)([C@H]5CC[C@](O)(CC)[C@H](C)O5)O4)O3)[C@H](C)C[C@@H]2C)O1` (stereo not given in full), the GI50 in assay [1] is 1.76 µM; in assay [2] it was 2.08 µM; in [3], 3.19 µM; in assay [4], 2.48 µM; in [5], 1.75 µM; in assay [6], 1.92 µM. The GI50 in assay [7] is 2.2 µM; in [8], 1.57 µM; in [9], 2.78 µM; in [10], 3.27 µM. The TGI in assay [1] came out at 3.6 µM; in assay [2] it was 5.68 µM; in [3] it was 11.5 µM; in assay [4] it was 6.93 µM; in assay [5], 7.63 µM; in assay [6], 4.57 µM. Also, the TGI is 6.42 µM in assay [7], 3.47 µM in assay [8], 10.1 µM in [9] and 34.8 µM in assay [10].
With `Cc1cc(O)c2c3c(ccc2c1)C(=O)c1c(O)cccc1C3=O`, the total growth inhibition concentration (TGI) was 0.0846 µM in [1]; above 32.3 µM in [2]; above 100 µM in assay [3]; above 100 µM in assay [4]; above 100 µM in assay [5]; 3.45 µM in assay [6]. Besides, the TGI is above 100 µM in [7], above 100 µM in assay [8], above 100 µM in assay [9] and above 45 µM in assay [10].
With `CC(C)OC(=O)C1Cc2c([nH]c3ccccc23)C(c2ccccc2)N1` (stereo not given), the concentration for total growth inhibition (TGI) in assay [1] was 73.4 µM; in [2], above 100 µM; in [3], above 100 µM; in assay [4] it was above 100 µM; in [5] it was above 100 µM; in [6], above 100 µM. The TGI was above 100 µM in assay [7], 98.3 µM in [8], above 100 µM in [9] and above 100 µM in assay [10].
`N#C/C(=C\c1cc2ccc(N3CCC3)cc2oc1=O)C(=O)N(CC(=O)O)CC(=O)O`: the GI50 in [1], in assay [2], in [3], in assay [4], in [5] and in assay [6] was above 100 µM each time. Further, the GI50 in [7], in [8], in assay [9] and in assay [10] was above 100 µM each time. In addition, the TGI in [1], in assay [2], in assay [3], in assay [4], in assay [5] and in [6] was above 100 µM in each case. The concentration for total growth inhibition (TGI) in [7], in [8], in assay [9] and in assay [10] was above 100 µM each time.
Take `c1ccc(C2CCCCC2)c(OCCCCCN2CCNCC2)c1`: the GI50 in assay [1] is 1.85 µM; in [2] it was 10.3 µM; in assay [3], 2.4 µM; in assay [4], 5.72 µM; in assay [5], 2.81 µM; in [6] it was 2.74 µM. Further, the GI50 in assay [7] is 2.93 µM; in [8], 1.77 µM; in [9] it was 1.82 µM; in [10], 5.14 µM. The concentration for total growth inhibition (TGI) in assay [1] turned out to be 3.57 µM; in [2], 28.5 µM; in [3] it was 7.9 µM; in assay [4], 22.2 µM; in [5], 10.9 µM; in assay [6] it was 11.1 µM. Besides, the concentration for total growth inhibition (TGI) turned out to be 18.1 µM in assay [7], 4.02 µM in assay [8], 4.2 µM in assay [9] and 21.4 µM in assay [10].
On to `Cn1c(C(=O)c2cccc3ccccc23)nc2ccccc21`, for which the GI50 in [1] is above 100 µM; in assay [2], above 100 µM; in [3], above 100 µM; in [4] it was above 100 µM; in [5], 61 µM; in [6] it was above 100 µM. In addition, the GI50 in assay [7], in assay [8], in assay [9] and in assay [10] was above 100 µM throughout. Moreover, the TGI in assay [1], in [2], in [3], in assay [4], in assay [5] and in assay [6] was above 100 µM throughout. The concentration for total growth inhibition (TGI) in assay [7], in assay [8], in assay [9] and in assay [10] was above 100 µM in each case.
In the case of `C[C@H]1CN(C2COC2)CCN1c1ccc(Nc2cc(-c3ccnc(N4CCn5c(cc6c5CC(C)(C)C6)C4=O)c3CO)cn(C)c2=O)nc1`, the GI50 in assay [1] is above 100 µM; in [2], 56.3 µM; in assay [3], 21.4 µM; in assay [4], above 100 µM; in [5], 27.9 µM; in assay [6] it was 37.4 µM. The GI50 was 49.9 µM in [7], 40.6 µM in assay [8], 44.8 µM in assay [9] and 29.5 µM in [10]. Further, the concentration for total growth inhibition (TGI) in assay [1], in [2], in assay [3], in assay [4], in [5] and in assay [6] was above 100 µM each time. The TGI in assay [7], in assay [8], in [9] and in [10] was above 100 µM in each case.
For `NCc1ccc(-c2nc(-c3ccc(Cl)c(O)c3)c(-c3ccncc3)[nH]2)cc1`, the GI50 was 2.72 µM in assay [1]; above 25 µM in assay [2]; above 25 µM in assay [3]; 13.5 µM in assay [4]; above 25 µM in [5]; above 25 µM in [6]. Moreover, the GI50 is above 25 µM in assay [7], above 19.2 µM in [8], above 25 µM in assay [9] and above 25 µM in assay [10]. Further, the TGI is 11.2 µM in assay [1]; above 25 µM in assay [2]; above 25 µM in [3]; above 25 µM in assay [4]; above 25 µM in assay [5]; above 25 µM in [6]. Besides, the TGI in assay [7], in [8], in assay [9] and in assay [10] was above 25 µM throughout.
With `c1ccc(CN2COc3c(ccc4c5c(ccc34)CN(Cc3ccccc3)CO5)C2)cc1`, the TGI in assay [1], in [2], in [3], in [4], in assay [5] and in assay [6] was above 100 µM in each case. The concentration for total growth inhibition (TGI) in assay [7], in [8], in assay [9] and in assay [10] was above 100 µM in each case.
Regarding `CN(C)c1nc(N)c(C#N)c(C#N)c1C#N`, the TGI in assay [1] was above 10 µM; in [2], 3.8 µM; in assay [3], above 10 µM; in assay [4], above 10 µM; in assay [5], above 10 µM; in assay [6], above 10 µM. Also, the concentration for total growth inhibition (TGI) in assay [7], in [8], in [9] and in assay [10] was above 10 µM in each case.
For `O=C(Cc1ccccc1)C(c1ccccc1)S(=O)(=O)c1ccccc1` (stereo not given), the TGI in assay [1], in assay [2], in assay [3], in [4], in assay [5] and in [6] was above 100 µM each time. Also, the total growth inhibition concentration (TGI) in [7], in assay [8], in assay [9] and in assay [10] was above 100 µM throughout.
Turning to `N#CCNC(=O)c1ccc(-c2ccnc(Nc3ccc(N4CCOCC4)cc3)n2)cc1`, the GI50 is 6.44 µM and 1.26 µM in assay [1]; 1.22 µM and 0.713 µM in assay [2]; 2.5 µM and 2.51 µM in assay [3]; 2.71 µM and 1.87 µM in [4]; 0.513 µM and 0.273 µM in [5]; 7.77 µM and 5.78 µM in assay [6]. For the same compound, the GI50 in [7] is 2.73 µM and 0.992 µM; in assay [8], 1.11 µM and 0.345 µM; in [9], 3.46 µM and 1.79 µM; in assay [10], 1.78 µM and 1.41 µM. Further, the TGI is > 10 µM and 18.1 µM in assay [1]; > 10 µM and 21.5 µM in assay [2]; above 30 µM in [3]; > 10 µM and 38.4 µM in assay [4]; 3.72 µM and 3.03 µM in [5]; > 10 µM and 46.6 µM in assay [6]. Besides, the TGI in assay [7] was above 100 µM; in [8], 3.09 µM and 1.7 µM; in assay [9], > 10 µM and 34.8 µM; in [10] it was > 10 µM and 17.7 µM.
Consider `COc1ccc(OC)c(Cc2cnc3nc(N)nc(N)c3c2C)c1`, for which the total growth inhibition concentration (TGI) in [1] is 13.7 µM; in [2], 21.8 µM; in assay [3], 29.4 µM; in assay [4], above 50.1 µM; in [5] it was above 81.9 µM; in [6], 10.9 µM. In addition, the TGI in assay [7] was 33.6 µM; in assay [8] it was 21.9 µM; in assay [9], above 44.1 µM; in assay [10], above 71.2 µM.
